Drawing on BindingDB's records for doi:10.1016/j.bmc.2019.115193 (Stanford University, 2020), this text covers EC50 for 1 compound.

The nature of this test: Inhibition of human DYRK1A transfected in HEK293T cells co-transfected with Renilla plasmid, pGL3-NFAT and NFATc1 assessed as derepression of NFAT-dependent luciferase activity measured after 48 hrs by luciferase assay.

The term EC50 denotes the concentration that produces a half-maximal response. With `CCOC(=O)c1cnc2ccc(-c3ccnc(C)c3)nc2c1N[C@H]1CC[C@H](CN(C)C)CC1`, the EC50 was 1530 nM.
